Tests used:
[1] = rat, in vivo, sc
Description: (§1) Pharmacokinetic studies of the subcutaneous dosing of the DXM PK studies discussed herein were performed in rats where bolus DXM was compared to various formulations of DXM-MVLs at doses between 0.21-0.42 mg/kg. Female Sprague Dawley rats supplied by Absorption Systems weighing about 310 g received subcutaneous injections of either a bolus of unencapsulate (free or unencapsulated) DXM dissolved in H3PO4 solution or one the of the DXM-MVL formulations suspended in saline or buffered saline (20 mM phosphate). Injections were made on the left lateral hind limb of each rat using 100 μL syringes fitted with 25G needles. Each treatment group contained 3 rats.
(§2) Plasma samples were collected at different times points (0.5, 1, 2, 6, 12, 24, 48, 72 & 96 hour post dose) for analysis. Blood samples were collected via the right saphenous vein using a 19 gauge needle prick or cardiac puncture for the final time point, placed into chilled tubes containing the appropriate anticoagulant, inverted several times to mix, protected from light, and kept on ice until centrifugation.

[2] = background statement; cited from earlier work
in vivo = details: female, Sprague Dawley, rat, sc
Description: as §1, §2

Cc1cccc([C@H](C)c2cnc[nH]2)c1C [Unencapsulated DXM solution, dexmedetomidine]
AUC/Dose ([1]; female, Sprague Dawley): 383 pg·h/mL/mg/kg | Cmax/Cavg [1]: 2.3 | time at which plasma DXM levels peaked [1]: within an hour | t1/2 [2]: 2 h | Tmax (in vivo): 0.5 h | half-life (in vivo): 2 h

From patent US20220273568A1, “MULT[…] FORMULATIONS OF DEXMEDETOMIDINE” (Pacira Pharmaceuticals, Inc., priority 2019, published 2022)
